Measurements: US20140171316A1, “ANTHRANILAMIDE COMPOUNDS AND THEIR USE AS PESTICIDES” (BASF SE, priority 2011, published 2014)

Columns and labels:
Type in all cases: in vivo
Dichromothrips corbetti = test: Orchid thrips (Dichromothrips corbetti) floral-immersion test; conditions: dipped orchid flowers, adult thrips, 72 hours after treatment, read-out: mortality in comparison with untreated controls
Method: Dichromothrips corbetti adults used for bioassay were obtained from a colony maintained continuously under laboratory conditions. For testing purposes, the test compound was diluted in a 1:1 mixture of acetone:water (vol:vol), plus 0.01% vol/vol Alkamuls® EL 620 surfactant.
Thrips potency of each compound was evaluated by using a floral-immersion technique. Plastic petri dishes were used as test arenas. All petals of individual, intact orchid flowers were dipped into treatment solution and allowed to dry. Treated flowers were placed into individual petri dishes along with about 20 adult thrips. The petri dishes were then covered with lids. All test arenas were held under continuous light and a temperature of about 28° C. for duration of the assay. After 3 days, the numbers of live thrips were counted on each flower, and along inner walls of each petri dish. The percent mortality was recorded 72 hours after treatment.

Ceratitis capitata = test: Mediterranean fruitfly (Ceratitis capitata) microtiter plate insect diet test; conditions: 120 h, sprayed onto insect diet, 5 days, read-out: mortality in comparison with untreated controls (egg and larval mortality)
Method: For evaluating control of Mediterranean fruitfly (Ceratitis capitata) the test unit consisted of microtiter plates containing an insect diet and 50-80 C. capitata eggs.
The compounds were formulated using a solution containing 75% v/v water and 25% v/v DMSO. Different concentrations of formulated compounds were sprayed onto the insect diet at 5 μl, using a custom built micro atomizer, at two replications.
(§1) After application, microtiter plates were incubated at about 28±1° C. and about 80±5% relative humidity for 5 days. Egg and larval mortality was then visually assessed.

Megoura viciae = test: Vetch aphid (Megoura viciae) broad bean leaf disk test; conditions: foliar, 120 h, sprayed broad bean leaf disks, adult aphids, 5 days, read-out: mortality in comparison with untreated controls
Method: For evaluating control of vetch aphid (Megoura viciae) through contact or systemic means the test unit consisted of 24-well-microtiter plates containing broad bean leaf disks.
The compounds were formulated using a solution containing 75% v/v water and 25% v/v DMSO. Different concentrations of formulated compounds were sprayed onto the leaf disks at 2.5 μl, using a custom built micro atomizer, at two replications.
After application, the leaf disks were air-dried and 5-8 adult aphids placed on the leaf disks inside the microtiter plate wells. The aphids were then allowed to suck on the treated leaf disks and incubated at about 23±1° C. and about 50±5% relative humidity for 5 days. Aphid mortality and fecundity was then visually assessed.

Heliothis virescens = test: Tobacco budworm (Heliothis virescens) microtiter plate insect diet test; conditions: 120 h, sprayed onto insect diet, 5 days, read-out: mortality in comparison with untreated controls (egg and larval mortality)
Method: For evaluating control of tobacco budworm (Heliothis virescens) the test unit consisted of 96-well-microtiter plates containing an insect diet and 15-25 H. virescens eggs.
The compounds were formulated using a solution containing 75% v/v water and 25% v/v DMSO. Different concentrations of formulated compounds were sprayed onto the insect diet at 10 μl, using a custom built micro atomizer, at two replications.
as §1

Myzus persicae = test: Green peach aphid (Myzus persicae) spray test on bell pepper plants; conditions: 120 h, sprayed infested bell pepper plants, after 5 days, read-out: mortality in comparison with untreated controls
Text: The active compounds were formulated in cyclohexanone as a 10,000 ppm solution supplied in tubes. The tubes were inserted into an automated electrostatic sprayer equipped with an atomizing nozzle and they served as stock solutions for which lower dilutions were made in 50% acetone:50% water (v/v). A nonionic surfactant (Kinetic®) was included in the solution at a volume of 0.01% (v/v).
Bell pepper plants at the first true-leaf stage were infested prior to treatment by placing heavily infested leaves from the main colony on top of the treatment plants. Aphids were allowed to transfer overnight to accomplish an infestation of 30-50 aphids per plant and the host leaves were removed. The infested plants were then sprayed by an automated electrostatic plant sprayer equipped with an atomizing spray nozzle. The plants were dried in the sprayer fume hood, removed, and then maintained in a growth room under fluorescent lighting in a 24-hr photoperiod at about 25° C. and about 20-40% relative humidity. Aphid mortality on the treated plants, relative to mortality on untreated control plants, was determined after 5 days.

Aphis craccivora = test: Cowpea aphid (Aphis craccivora) spray test on potted cowpea plants; conditions: sprayed cowpea plants, assessed after 72 hours, read-out: mortality in comparison with untreated controls
Method: The active compound was dissolved at the desired concentration in a mixture of 1:1 (vol:vol) distilled water:acetone. Surfactant (Alkamuls® EL 620) is added at a rate of 0.1% (vol/vol). The test solution was prepared at the day of use.
Potted cowpea plants were colonized with approximately 50-100 aphids of various stages by manually transferring a leaf tissue cut from infested plant 24 hours before application. Plants were sprayed after the pest population has been recorded. Treated plants were maintained on light carts at about 28° C. Percent mortality was assessed after 72 hours.

Anthonomus grandis = test: Boll weevil (Anthonomus grandis) microtiter plate insect diet test; conditions: 120 h, sprayed onto insect diet, 5 days, read-out: mortality in comparison with untreated controls (egg and larval mortality)
Method: For evaluating control of boll weevil (Anthonomus grandis) the test unit consisted of 24-well-microtiter plates containing an insect diet and 20-30 A. grandis eggs.
The compounds were formulated using a solution containing 75% v/v water and 25% v/v DMSO. Different concentrations of formulated compounds were sprayed onto the insect diet at 20 μl, using a custom built micro atomizer, at two replications.
After application, microtiter plates were incubated at about 23±1° C. and about 50±5% relative humidity for 5 days. Egg and larval mortality was then visually assessed.

CNC(=O)c1cc(/C=N/OC)cc(C)c1NC(=O)c1cnn(CC(F)(F)F)c1-c1ncccc1Cl [Compound 1-1, 5-(3-chloro-2-pyridyl)-N-[4-[(E)-methoxyiminomethyl]-2-methyl-6-(methylcarbamoyl)phenyl]-1-(2,2,2-trifluoroethyl)pyrazole-4-carboxamide]
> 75%: mortality at 500 ppm (Dichromothrips corbetti) | mortality at 2500 ppm (Ceratitis capitata) | mortality at 2500 ppm (Megoura viciae) | mortality at 2500 ppm (Heliothis virescens) | mortality at 2500 ppm (Myzus persicae) | mortality at 500 ppm (Aphis craccivora) | mortality at 2500 ppm (Anthonomus grandis)

CNC(=O)c1cc(-n2cncn2)cc(C)c1NC(=O)c1cnn(CC(F)(F)F)c1-c1ncccc1Cl [Compound 1-2, 5-(3-chloro-2-pyridyl)-N-[2-methyl-6-(methylcarbamoyl)-4-(1,2,4-triazol-1-yl)phenyl]-1-(2,2,2-trifluoroethyl)pyrazole-4-carboxamide]
> 75%: mortality at 500 ppm (Dichromothrips corbetti) | mortality at 2500 ppm (Ceratitis capitata) | mortality at 2500 ppm (Megoura viciae) | mortality at 2500 ppm (Heliothis virescens) | mortality at 2500 ppm (Myzus persicae) | mortality at 500 ppm (Aphis craccivora) | mortality at 2500 ppm (Anthonomus grandis)
